Columns and labels:
NOP receptor = biological target: T1, NOP receptor (Rattus norvegicus, UniProt P35370); experiment: Effect of nociceptin antagonist on intranasal nociceptin induced reduction of thermal nociception; type: in vivo; conditions: subcutaneous 10.0 mg/kg, 45 minutes before i.n. nociceptin (5.0 mg/kg); rat cheek and hindpaw
T1 construct: from tissue; host or cells: whole living male Sprague-Dawley rats (in vivo)
Text: This experiment was to verify the binding site of nociceptin induced analgesia in a thermal nociceptive rodent model.
(A) Groups of six rats per test run were lightly anesthetized with urethane (1.0 g/kg, i.p., titrated to minimal activity in the absence of a stimulus) (Sherman and Loomis et al, 1996). The left and right cheeks and right hindpaw were blackened with India ink to allow even heat distribution.
(B) Each 200-300 g male Sprague-Dawley rat was subjected to varying heat intensities on the left and right check and right hindpaw for selective testing of A-delta vs. C fiber nociception (Yeomans et al., 1996). • For C-fiber testing, the heat intensity was adjusted by altering the supply voltage of a focused projector lamp until a withdrawal latency between 9-13 seconds was observed. […] To reduce the potential for tissue damage, a cut-off latency of 20 seconds was used after which the stimulus was terminated. […]
(E) Withdrawal latencies were measured in response to radiant heat stimulation of the left and right cheeks, followed by similar measurements of response latencies for each hindpaw. […]
The efficacy of nasal application of nociceptin was measured in rats pretreated with subcutaneous nociceptin antagonist in comparison to rats pre-treated with subcutaneous saline vehicle. […]

rats = conditions: intraperitoneal 3.0 mg/kg or intranasal 4.0 mg/kg, regardless of route
Description: Compounds were administered 20-30 minutes prior to the charcoal meal (2 mL/rat). Rats were sacrificed 30 minutes after receiving the meal. % transit was calculated as the ratio of the travel distance of the charcoal marker divided by the full length of the small intestine multiplied by 100%. Data are presented as the mean±1 SEM. (n=8 Rats/group).
In order to determine whether intransasal N/OFQ, which has a similar analgesic efficacy to that of strong opiates, would also produce constipation, the effects of intranasal N/OFQ on gastric transit time was assessed. […] Stomach and small intestine were immediately removed and both the total length of small intestine and the distance traveled by the charcoal were recorded. Percent transit was calculated as the ratio of charcoal distance divided by total small intestine length multiplied by 100%.

male rats = experiment: Facial formalin model of tonic pain (formalin injection into the lip, facial wiping/grooming); type: in vivo; conditions: rat lip formalin
Description: Time spent grooming was determined over 45 minutes and grouped in 3 minute bins. […] The area under the curve (AUC) for each compound or vehicle was approximated using the trapezodial method. % Reduction=[(Vehicle AUC−Treatment AUC)/Vehicle AUC)]×100%. Data are presented as the mean±1 SEM. (n=6-8 Rats/group).
The paw formalin model is widely used to assess tonic pain efficacy of putative and known analgesic treatments.

T1 sequence (P35370 whole entry): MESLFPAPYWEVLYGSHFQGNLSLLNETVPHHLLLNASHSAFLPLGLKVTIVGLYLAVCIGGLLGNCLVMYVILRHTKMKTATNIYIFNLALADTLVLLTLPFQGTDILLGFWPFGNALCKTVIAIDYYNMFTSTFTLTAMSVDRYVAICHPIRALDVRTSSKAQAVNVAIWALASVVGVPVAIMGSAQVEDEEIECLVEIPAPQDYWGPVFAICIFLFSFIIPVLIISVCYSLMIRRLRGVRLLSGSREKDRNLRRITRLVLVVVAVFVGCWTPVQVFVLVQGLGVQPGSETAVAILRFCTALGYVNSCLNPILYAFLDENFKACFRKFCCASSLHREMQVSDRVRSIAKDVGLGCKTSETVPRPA

## Cc1cccc2c1CC[C@@H](CN1CCC(c3c(Cl)cccc3Cl)CC1)C[C@H]2O [SB-612111, (−)-cis-1-methyl-7-[[4-(2,6-dichlorophenyl)piperidin-1-yl]-methyl]-6,7,8,9-tetrahydro-5H-benzocyclohepten-5-ol]
NOP receptor
  effect on analgesic activity of intranasal nociceptin: apparent block of the analgesic activity of nociceptin

## CN1CC[C@]23c4c5ccc(O)c4O[C@H]2[C@@H](O)C=C[C@H]3[C@H]1C5 [morphine]
rats
  effect on intestinal transit (percent transit): considerable slowing of transit
Male rats; 3 mg/kg i.n.
  maximal inhibition of facial wiping behavior: 80.2%

## CNS(=O)(=O)Cc1ccc2[nH]cc(CCN(C)C)c2c1 [sumatriptan]
Male rats; ip, 42 mg/kg i.p., read-out: inhibition of facial wiping behavior
  inhibition at 42 mg/kg: 43.8%

Reference: US9238053B2, “Methods for treatment of pain” (Nocicepta LLC, priority 2009, dated 2016)
